Patent US7842324B2 (Senomyx, Inc., priority 2005, dated 2010)
pEC50: −log10 of the molar value.

Experiments:
[1] = target: T1, hT1R2/hT1R3 sweet receptor expressed in HEK293 cell line (Homo sapiens, UniProt Q7RTX0+Q8TE23); assay: In vitro hT1R2/hT1R3-HEK293 taste receptor activation assay (FLIPR); type: cell-based; conditions: read-out: EC50 for activation of a hT1R2/hT1R3 sweet receptor expressed in HEK293 cell line
T1 construct: expressed in transfected cells; host or cells: HEK293 derivative stably expressing Gα15 and hT1R2/hT1R3, clone S-9
T1 sequence (Q8TE23 20-839): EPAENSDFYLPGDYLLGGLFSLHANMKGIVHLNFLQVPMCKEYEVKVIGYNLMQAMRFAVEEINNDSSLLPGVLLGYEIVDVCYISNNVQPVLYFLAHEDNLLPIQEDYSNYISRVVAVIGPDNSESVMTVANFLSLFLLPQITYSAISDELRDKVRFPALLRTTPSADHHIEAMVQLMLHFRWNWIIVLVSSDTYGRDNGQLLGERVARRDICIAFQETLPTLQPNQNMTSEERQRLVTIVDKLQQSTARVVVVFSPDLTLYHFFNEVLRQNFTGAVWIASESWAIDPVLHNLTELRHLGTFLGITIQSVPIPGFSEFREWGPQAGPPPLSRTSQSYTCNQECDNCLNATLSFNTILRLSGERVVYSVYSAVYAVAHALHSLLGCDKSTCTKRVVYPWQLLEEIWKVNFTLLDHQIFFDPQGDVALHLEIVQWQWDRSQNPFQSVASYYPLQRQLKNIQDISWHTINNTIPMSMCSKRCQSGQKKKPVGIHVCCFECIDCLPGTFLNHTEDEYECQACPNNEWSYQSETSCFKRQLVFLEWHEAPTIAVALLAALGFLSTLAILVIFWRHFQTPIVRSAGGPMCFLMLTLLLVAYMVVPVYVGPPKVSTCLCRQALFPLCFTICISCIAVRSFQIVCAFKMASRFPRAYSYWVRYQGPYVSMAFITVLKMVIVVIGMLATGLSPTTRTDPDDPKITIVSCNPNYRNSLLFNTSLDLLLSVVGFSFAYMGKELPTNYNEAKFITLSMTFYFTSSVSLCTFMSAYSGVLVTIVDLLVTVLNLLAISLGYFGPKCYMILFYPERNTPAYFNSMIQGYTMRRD
T1 sequence (Q7RTX0 21-852): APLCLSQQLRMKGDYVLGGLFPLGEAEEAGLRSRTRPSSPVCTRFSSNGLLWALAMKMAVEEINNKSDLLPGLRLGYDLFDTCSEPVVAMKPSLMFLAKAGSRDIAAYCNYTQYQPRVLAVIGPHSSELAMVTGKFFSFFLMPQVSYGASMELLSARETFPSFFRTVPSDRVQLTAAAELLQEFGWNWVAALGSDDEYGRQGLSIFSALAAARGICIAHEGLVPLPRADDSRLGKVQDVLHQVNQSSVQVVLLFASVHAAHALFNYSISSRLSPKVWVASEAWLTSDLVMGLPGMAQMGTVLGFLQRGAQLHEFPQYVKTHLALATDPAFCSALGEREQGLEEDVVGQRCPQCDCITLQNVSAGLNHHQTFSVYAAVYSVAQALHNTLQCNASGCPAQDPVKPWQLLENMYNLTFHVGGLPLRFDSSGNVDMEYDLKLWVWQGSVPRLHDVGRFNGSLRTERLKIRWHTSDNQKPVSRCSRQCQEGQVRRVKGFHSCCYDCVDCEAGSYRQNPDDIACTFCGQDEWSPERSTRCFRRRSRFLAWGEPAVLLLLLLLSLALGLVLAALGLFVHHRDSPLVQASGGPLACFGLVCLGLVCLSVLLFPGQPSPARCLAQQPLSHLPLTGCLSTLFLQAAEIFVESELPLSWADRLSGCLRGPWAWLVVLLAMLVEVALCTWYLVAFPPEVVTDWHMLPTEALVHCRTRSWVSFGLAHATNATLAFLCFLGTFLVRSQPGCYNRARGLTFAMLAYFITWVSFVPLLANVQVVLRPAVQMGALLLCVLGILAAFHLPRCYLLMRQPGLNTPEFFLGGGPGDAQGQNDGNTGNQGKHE
Procedure, shortened: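 HEK293 cells stably expressing Gα15 and hT1R2/hT1R3 were loaded with Fluo-3AM (4 μM, 1 h, room temperature), then stimulated at room temperature in D-PBS. Peak fluorescence (ex 480/em 535 nm) was normalized to basal. Dose-responses were run in duplicate over 60 nM–30 μM, normalized to 400 mM D-fructose, and EC50 fitted by free-Hill non-linear regression.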

Human Panelists = assay: Difference from Reference human taste test (Table B); type: in vivo; conditions: 5 μM compound + 6% fructose/glucose, pH 7.1
Excerpt: Purpose: To determine how the intensity of a test sample of an experimental compound differs from that of a reference sample in terms of sweetness. This type of study requires a larger number of evaluations in order to obtain statistically significant data, so the test may be repeated with the same or additional panelists.
Subjects rate the difference in intensity of the test sample compared to the reference sample for the key attribute on a scale of −5 (much less sweet than the reference) to +5 (much sweeter than the reference). A score of 0 indicates the test sample is equally as sweet as the reference.
Procedure: Ten or more Subjects are used for the Difference from Reference tests. Subjects have been previously familiarized with the key attribute taste and are trained to use the −5 to +5 scale. Subjects refrain from eating or drinking (except water) for at least 1 hour prior to the test. Subjects eat a cracker and rinse with water four times to clean the mouth. […]
The scores for each test are averaged across Subjects and standard error is calculated. Panel accuracy can be determined using the score from the blind reference test. […]

`Cc1cscc1-c1ccc(C(C)(C)C(=O)NCC(C)C)cc1` [Compound 2, N-Isobutyl-2-methyl-2-(4-(4-methylthiophen-3-yl)phenyl)propanamide] was tested, and the pEC50 [1] was 6.07 and the “Perceived Equivalent Sweet Solution” value (Human Panelists) was ≥ 9% fructose/glucose.
